Results on 22 compounds are retold here after ChEMBL document CHEMBL3046562, “Pharmacological Effects of Imidacloprid and Its Related Compounds on the Nicotinic Acetyicholine Receptor with Its Ion Channel from the Torpedo Electric Organ” (J Pestic Sci, 1995).

In assay [1] the target is Acetylcholine receptor subunit alpha (Torpedo californica) (UniProt P02710). The assay can be described thus: Displacement of [3H]alpha-BGT from nAChR in Torpedo nobiliana electric organs membranes at 300 uM by scintillation counting method. Particulars: Electric organ. Type of assay: tissue-based. Background: Displacement assays read how much labelled ligand stays bound in the presence of the test substance.

The target is the same in assay [2]. The assay can be described thus: Displacement of [3H]PCP from nAChR in Torpedo nobiliana electric organs membranes assessed as [3H]PCP binding level at 500 uM by scintillation counting method relative to untreated control. The settings on record: Electric organ. Type of assay: tissue-based.
The target is the same in assay [3]. The assay can be described thus: Displacement of [3H]PCP from nAChR in Torpedo nobiliana electric organs membranes assessed as [3H]PCP binding level at 500 uM in presence of 100 uM carbachol by scintillation counting method relative to untreated control. Type of assay: tissue-based. The settings on record: Electric organ.
The target is the same in assay [4]. The assay can be described thus: Increase in [3H]PCP binding to nAChR in Torpedo nobiliana electric organs membranes by scintillation counting method. Type of assay: tissue-based. The settings on record: Electric organ.
For assay [5] the target is unchanged. The assay can be described thus: Displacement of [3H]PCP from nAChR in Torpedo nobiliana electric organs membranes assessed as [3H]PCP binding level at 1000 uM in presence of 100 uM carbachol by scintillation counting method relative to untreated control. Type of assay: tissue-based. The settings on record: Electric organ.
The target is the same in assay [6]. The assay can be described thus: Displacement of [3H]PCP from nAChR in Torpedo nobiliana electric organs membranes assessed as [3H]PCP binding level at 1000 uM by scintillation counting method relative to untreated control. The assay is classed as tissue-based. The settings on record: Electric organ.
A short description of assay [7]: Displacement of [3H]alpha-BGT from nAChR in Torpedo nobiliana electric organs membranes by scintillation counting method.
The target of assay [8] is Acetylcholine receptor subunit alpha (Torpedo californica) (UniProt P02710). The assay can be described thus: Displacement of [3H]PCP from nAChR in Torpedo nobiliana electric organs membranes assessed as [3H]PCP binding level at 1000 uM pre-treated with 0.5 uM alpha-bungarotoxin by scintillation counting method relative to untreated control. Particulars: Electric organ. Type of assay: tissue-based.

The target is the same in assay [9]. The assay can be described thus: Displacement of [3H]PCP from nAChR in Torpedo nobiliana electric organs membranes assessed as [3H]PCP binding level at 300 uM in presence of 100 uM carbachol by scintillation counting method relative to untreated control. Type of assay: tissue-based. Particulars: Electric organ.
Assay [10] shares this target. The assay can be described thus: Displacement of [3H]PCP from nAChR in Torpedo nobiliana electric organs membranes assessed as [3H]PCP binding level at 300 uM pre-treated with 0.5 uM alpha-bungarotoxin by scintillation counting method relative to untreated control. Type of assay: tissue-based. The settings on record: Electric organ.
The target is the same in assay [11]. The assay can be described thus: Displacement of [3H]PCP from nAChR in Torpedo nobiliana electric organs membranes assessed as [3H]PCP binding level at 300 uM by scintillation counting method relative to untreated control. The assay is classed as tissue-based. Particulars: Electric organ.
For assay [12] the target is unchanged. The assay can be described thus: Displacement of [3H]PCP from nAChR in Torpedo nobiliana electric organs membranes at 1000 uM by scintillation counting method. Type of assay: tissue-based. The settings on record: Electric organ.
The target is the same in assay [13]. The assay can be described thus: Displacement of [3H]PCP from nAChR in Torpedo nobiliana electric organs membranes at 300 uM by scintillation counting method. The assay is classed as tissue-based. The settings on record: Electric organ.
For assay [14] the target is unchanged. The assay can be described thus: Displacement of [3H]alpha-BGT from nAChR in Torpedo nobiliana electric organs membranes at 1000 uM by scintillation counting method. Type of assay: tissue-based. The settings on record: Electric organ.
Assay [15] has the same target. The assay can be described thus: Increase in [3H]PCP binding to nAChR in Torpedo nobiliana electric organs membranes at 1 to 3 uM by scintillation counting method. Type of assay: tissue-based. Particulars: Electric organ.

pIC50: −log10 of the molar value. Activity calls are given as the source filed them. The calls are words filed in the database; no cut-off is given here.

Acetylcholine receptor subunit alpha (Torpedo californica), sequence (P02710 whole entry): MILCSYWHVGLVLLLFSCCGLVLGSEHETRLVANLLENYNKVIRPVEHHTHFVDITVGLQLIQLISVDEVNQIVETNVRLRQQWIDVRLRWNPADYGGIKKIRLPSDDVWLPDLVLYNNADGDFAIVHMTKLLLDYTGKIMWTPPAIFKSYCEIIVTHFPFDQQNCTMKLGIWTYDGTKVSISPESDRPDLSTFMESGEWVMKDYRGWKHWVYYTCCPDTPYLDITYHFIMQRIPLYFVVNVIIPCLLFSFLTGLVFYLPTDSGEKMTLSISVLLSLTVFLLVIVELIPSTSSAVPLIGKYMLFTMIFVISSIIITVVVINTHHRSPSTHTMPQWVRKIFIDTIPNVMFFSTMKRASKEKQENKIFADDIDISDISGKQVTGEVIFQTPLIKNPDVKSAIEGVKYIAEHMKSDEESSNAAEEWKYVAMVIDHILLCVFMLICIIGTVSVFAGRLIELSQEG

For `CCN(Cc1ccc(Cl)nc1)/C(=C/[N+](=O)[O-])NC`, the inhibition – broadly, the percentage by which the read-out fell short of the control – in assay [1] amounted to 2.39%. Also, the results for the Activity in [2] and in assay [3] were 142% and 607%, respectively. In the case of `C[N+]1(C)CCN(c2ccccc2)CC1`, the result in assay [4] was Active.

Take `O=[N+]([O-])C=C1NCCCS1`: the Activity in assay [5] was 762%; in assay [6] it was 439%; in assay [8] it was 112%. Moreover, the negative logarithm of the IC50 (pIC50) (usually the IC50 on a negative log10 scale, so that one unit is a factor of ten) in assay [7] is 2.80. On to `C/C(=N\C#N)N(C)Cc1ccc(Cl)nc1`, for which the Activity was 93.3% in assay [9], 104% in [10] and 221% in assay [11].

`CN1CCC[C@H]1c1cccnc1` [NICOTINE] had a negative logarithm of the IC50 (pIC50) in assay [7] of 4.64. Besides, in assay [4], the outcome was Active. Take `O=C1N(Cc2ccccc2)C2C[S+]3CCCC3C2N1Cc1ccccc1` (configuration not stated): the inhibition in [12] worked out at 59.5%; in [1], 5.7%; in assay [13] it was 5.93%. The compound `CN1[C@@H](CC(=O)c2ccccc2)CCC[C@H]1C[C@H](O)c1ccccc1` had an inhibition in assay [14] of 0%.

On to `CN(C)C1CSSC1`, for which the outcome in [4] was Active. Take `O=[N+]([O-])/N=C1\NCCN1Cc1ccc(Cl)nc1` [IMIDACLOPRID]: the Activity in assay [9] was 92.4%; in [10] it was 108%; in assay [11] it was 287%. For the same compound, the pIC50 in assay [7] is 2.97. Take `O=[N+]([O-])/C=C1\NCCN1Cc1ccc(Cl)nc1`: the Activity in assay [9] was 94.6%; in assay [10] it was 142%; in assay [11], 461%. `CN(C)CCCN1c2ccccc2Sc2ccc(Cl)cc21` registered an inhibition in [14] of 7.15%. Regarding `CCC[C@H]1CCCCN1`, the outcome in assay [4] was Active.

Take `O=c1cccc2n1C[C@@H]1CNC[C@H]2C1`: in assay [4], the result was Active.

With `CSCCN1CCN/C1=C\[N+](=O)[O-]`, the Activity in assay [9] is 830%; in assay [11], 181%. Regarding `CNC1(c2ccccc2Cl)CCCCC1=O` (configuration not stated), the inhibition in assay [14] worked out at 0.1%. For the compound `CNC1(C)C2CCC(C2)C1(C)C` (configuration not stated), the inhibition in assay [14] is 0%. The same measure, in the same setting: next, `c1ccc(C2(N3CCCCC3)CCCCC2)cc1`: 3.2%. In assay [1], `c1csc(C2(N3CCCCC3)CCCCC2)c1` registered an inhibition of 0.91%. `C[N+](C)(C)CCOC(N)=O` [CARBACHOL]: the negative-log IC50 (pIC50) in assay [7] is 5.12. For the same compound, the result in assay [4] was Active. For the compound `CN1CCC[C@@H]1c1cccnc1`, the outcome in assay [4] was Active. In turn, `c1cncc([C@@H]2CCCCN2)c1` [ANABASINE] gave a pIC50 in assay [7] of 3.71. For the same compound, in assay [4], the outcome was Active. In assay [13], `COc1cc2c3cc1Oc1cc(ccc1O)C[C@@H]1c4c(cc(OC)c(O)c4Oc4ccc(cc4)C[C@@H]3N(C)CC2)CC[N+]1(C)C` displayed an inhibition of 91.3%. For the same compound, the Activity in assay [15] is 160%. Moreover, the outcome in assay [4] was Active.
